In data set [1] the test system is SARS-CoV-2 pseudovirus entry into HEK-293T-hACE2 cells. Nature of the data set: microbe, parasite or virus in culture. The class given is cell-based.
In data set [2] the test system is HEK-293T cells. Briefly: CCK-8 cytotoxicity, HEK-293T. To be noted: for Survival Rate (%) HEK-293T: 50 μg/mL, 48 h, CCK-8. The class given is cell-based, Human. On the procedure:
(§1) African green monkey kidney cells (Vero), Human Hepatocellular Carcinoma Cells (Huh-7), and Human Embryonic Kidney 293T (HEK-293T) cells were maintained in our laboratory. Cells were cultured in Dulbecco’s Modified Eagle’s Medium (DMEM, Hyclone, Logan, UT, USA) containing 10% fetal bovine serum (FBS, Gibco, Waltham, MA, USA) at 37 °C under 5% CO2 in a humidified environment.
(§2) The cytotoxicity of compounds against Vero, Huh-7, and HEK-293T cells was detected using the Cell Counting Kit-8. Briefly, the target cells were cultured at a density of 8000 cells per well in a 96-well plate containing DMEM enriched with 10% FBS. The cells were allowed to attach overnight, and the medium was replaced with a fresh serum-free DMEM containing 50 µg/mL of compounds. The cell viability was measured at 48 h post-drug treatment by the addition of the CCK-8 reagent (Biosharp, Hefei, Anhui, China), followed by incubation for 4 h. Finally, the absorbance of the cell culture was measured at 450 nm using a microplate reader (PerkinElmer, Waltham, MA, USA). The background absorbance of the blank media was also measured and subtracted from the sample reading. This experiment was repeated 3 times for each group. The obtained results were normalized to that of the control sample, which represented a cell viability of 100%.

For data set [3], the system named is Huh-7 cells. Briefly: CCK-8 cytotoxicity, Huh-7. The note with it: for Survival Rate (%) Huh-7: 50 μg/mL, 48 h, CCK-8. The class given is cell-based, Human. On the procedure: as §1, §2
The target of data set [4] is T1, AH109 (pAD-T+pBD-53) (UniProt P02340+P03070).
T1 construct: expressed in transfected cells; host or cells: yeast reporter strain AH109 carrying pAD-T and pBD-53
T1 sequence (P03070 87-708 limits assumed): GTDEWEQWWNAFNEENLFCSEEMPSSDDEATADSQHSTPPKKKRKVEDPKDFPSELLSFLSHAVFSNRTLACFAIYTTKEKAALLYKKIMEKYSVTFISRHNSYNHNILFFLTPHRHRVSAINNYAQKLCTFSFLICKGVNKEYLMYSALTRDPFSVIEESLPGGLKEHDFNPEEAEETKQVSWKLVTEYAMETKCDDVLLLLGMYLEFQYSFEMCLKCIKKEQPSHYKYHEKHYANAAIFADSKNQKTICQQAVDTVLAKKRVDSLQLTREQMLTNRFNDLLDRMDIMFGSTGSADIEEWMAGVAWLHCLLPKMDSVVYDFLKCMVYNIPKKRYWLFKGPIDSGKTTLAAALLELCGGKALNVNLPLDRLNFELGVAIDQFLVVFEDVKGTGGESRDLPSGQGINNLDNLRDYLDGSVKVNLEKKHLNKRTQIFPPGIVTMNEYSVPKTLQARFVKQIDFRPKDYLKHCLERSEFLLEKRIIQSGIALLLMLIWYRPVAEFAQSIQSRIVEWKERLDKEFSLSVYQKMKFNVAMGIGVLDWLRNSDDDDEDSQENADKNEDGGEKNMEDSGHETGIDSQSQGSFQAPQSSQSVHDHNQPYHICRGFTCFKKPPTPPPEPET
T1 sequence (P02340 72-390 limits assumed): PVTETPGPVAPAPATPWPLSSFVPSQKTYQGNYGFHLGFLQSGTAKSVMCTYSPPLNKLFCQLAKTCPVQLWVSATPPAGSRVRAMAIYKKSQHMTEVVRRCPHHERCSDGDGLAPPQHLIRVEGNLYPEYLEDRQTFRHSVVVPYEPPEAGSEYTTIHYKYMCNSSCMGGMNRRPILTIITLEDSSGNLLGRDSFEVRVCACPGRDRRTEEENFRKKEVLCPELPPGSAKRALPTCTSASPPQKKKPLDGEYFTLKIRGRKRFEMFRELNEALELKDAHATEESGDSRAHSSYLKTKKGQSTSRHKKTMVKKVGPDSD
Nature of the data set: Y2H growth inhibition (MIC) of control strain AH109 (pAD-T+pBD-53). Type of data set: cell-based, yeast. To be noted: SD/-Leu/-Trp/-His/-Ade dropout medium, 48 h. The protocol:
The Chemdiv screening compound library used for HTS assay in this research is a combination of synthetic compounds from Enamine (Kyiv, Ukraine) and Life Chemicals Inc. (Burlington, ON, Canada), which can be purchased from Shanghai Topscience Biotechnology Co., Ltd., China. The compounds were stocked at 10 mg/mL in DMSO and used for the screening assays as described. […] Next, 199 μL of the diluted culture and 1 μL of tested compounds (the final concentration was 50 μg/mL) or DMSO were added into each well. […] The final concentrations of the compounds ranged from 100 μg/mL to 0.78 μg/mL with 2-fold dilutions between concentrations.

Data set [5] deals with Vero cells. Briefly: CCK-8 cytotoxicity, Vero. The class given is cell-based, African green monkey. To be noted: for Survival Rate (%) Vero: 50 μg/mL, 48 h, CCK-8. The protocol:
as §1, §2

Data set [6] deals with AH109 (pAD-S-RBD+pBD-ACE2) cells. Nature of the data set: β-gal activity, ONPG assay in Y2H strain. The class given is cell-based, yeast. The protocol:
The ONPG assay was conducted following the protocol of the β-gal activity quantitative detection kit (GENMED S[…]. USA, Arlington, MA, USA). The principle is based on the chemical reaction that the colorless substrate ONPG can be hydrolyzed by β-gal to generate o-nitrophenol (ONP) with a bright-yellow appearance. Briefly, cells were pelleted in Eppendorf® tubes and resuspended in Z-buffer. Chloroform and 0.2% SDS were added to the cells in the tubes and mixed by briefly vortexing, followed by incubation at 28 °C for 5 min. Next, the ONPG solution was added for further incubation. The reaction was terminated after 10 min for p53-T and after 25 min for all other samples by the addition of chilled Na2CO3. Absorbance was recorded at 420 nm. Results were normalized against the cell density and incubation time using the following formula: U=OD420sample−OD420blank/OD600×t×V
Here, ‘t’ represents the incubation time duration, measured in min, while ‘V’ denotes the volume of the cell cultures utilized for the assay, expressed in mL. The experiments were repeated three times.

The test system of data set [7] is SARS-CoV-2 S-mediated cell–cell fusion (HEK-293T/SARS-CoV-2-S/EGFP with Vero). Type of data set: cell-based.
Data set [8] concerns the target ACE2 (Homo sapiens, UniProt Q9BYF1). Briefly: SPR binding to immobilised ACE2. A general note: SPR reads the build-up and loss of mass on a sensor chip optically.
For data set [9], the target named is SARS-CoV-2 S-RBD (Severe acute respiratory syndrome coronavirus 2, UniProt P0DTC2). Nature of the data set: biochemical. The class given is binding.
In data set [10] the target is ACE2-S-RBD interaction (Severe acute respiratory syndrome coronavirus 2, UniProt P0DTC2). The class given is binding, SARS-CoV-2.
The target in data set [11] is S-RBD+ACE2 complex (Severe acute respiratory syndrome coronavirus 2, UniProt P0DTC2). Also noted: species or system SARS-CoV-2.
The mark [12] stands for this setting: Severe acute respiratory syndrome-related coronavirus, 18 h, read-out: Inhibition rate of pseudovirus entry.

pKd: −log10 of the molar value.

One may read the inhibition as the drop in the measured response relative to a control, in per cent. The pKd is the Kd on a negative log10 scale, so that one unit is a factor of ten. Read a high pKd as a low Kd.

Chain of ACE2 (Q9BYF1 18-805): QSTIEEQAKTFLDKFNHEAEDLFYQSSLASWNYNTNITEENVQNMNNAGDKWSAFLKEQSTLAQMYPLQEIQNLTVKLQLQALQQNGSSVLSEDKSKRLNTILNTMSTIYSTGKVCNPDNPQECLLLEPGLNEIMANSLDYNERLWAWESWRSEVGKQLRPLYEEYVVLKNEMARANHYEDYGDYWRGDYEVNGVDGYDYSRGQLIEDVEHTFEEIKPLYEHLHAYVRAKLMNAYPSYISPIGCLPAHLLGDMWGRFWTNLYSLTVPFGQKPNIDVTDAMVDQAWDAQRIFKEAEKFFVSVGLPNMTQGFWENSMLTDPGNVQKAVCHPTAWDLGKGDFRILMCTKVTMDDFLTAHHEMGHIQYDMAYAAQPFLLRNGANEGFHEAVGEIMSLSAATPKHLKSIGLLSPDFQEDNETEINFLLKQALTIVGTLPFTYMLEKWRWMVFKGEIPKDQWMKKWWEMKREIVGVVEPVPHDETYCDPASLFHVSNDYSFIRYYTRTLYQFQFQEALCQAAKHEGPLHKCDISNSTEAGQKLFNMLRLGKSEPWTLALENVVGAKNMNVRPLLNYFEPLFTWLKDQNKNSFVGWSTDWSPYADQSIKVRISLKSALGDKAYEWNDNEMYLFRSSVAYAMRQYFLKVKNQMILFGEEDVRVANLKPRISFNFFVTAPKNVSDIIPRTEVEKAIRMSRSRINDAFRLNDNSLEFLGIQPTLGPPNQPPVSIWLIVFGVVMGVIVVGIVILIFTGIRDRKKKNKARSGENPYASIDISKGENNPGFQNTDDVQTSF

Consider `Cc1ccc(N(Sc2ccc(Cl)cc2)C2C=CS(=O)(=O)C2)cc1` (stereo not shown) [IMB-4A], for which the “Inhibition of pseudovirus entry (in words)” value in data set [1] is recorded as “could not be observed”. For the same molecule, the “Survival Rate (%) HEK-293T” value in data set [2] is 18%. In data set [3], the “Survival Rate (%) Huh-7” value worked out at 25%. In addition, the “MIC against AH109 (pAD-T+pBD-53)” value in [4] amounted to 12.5 μg/mL. Further, in data set [5], the “Survival Rate (%) Vero” value was found to be 71%. In data set [6], the “Concentration showing clear inhibition of β-gal activity” value was found to be 6.25 µg/mL.

With `O=C(c1ccc(N2CCCCS2(=O)=O)cc1)N1CCN(C(=O)c2ccco2)CC1` [IMB-1C], in [1], the “Inhibition of pseudovirus entry (in words)” value was “concentration-dependent inhibition”. In data set [1] (setting [12]), the inhibition at 10 µg/mL stood at 42.5% and the inhibition at 20 µg/mL is 68.1%. For the same molecule, the Syncytium formation entry in [7] is “somewhat blocked in a dose-dependent manner”. Besides, in [2], the “Survival Rate (%) HEK-293T” value worked out at 88%. For the same molecule, the “Effect on cell proliferation of HEK-293T” value in data set [2] (up to 50 µg/mL for 48 h) was “did not affect”. For the same molecule, the “Survival Rate (%) Huh-7” value in data set [3] is reported as 122%. In addition, in data set [3] (up to 50 µg/mL for 48 h), the “Effect on cell proliferation of Huh-7” value is “did not affect”. The “MIC against AH109 (pAD-T+pBD-53)” value in data set [4] is 3.125 μg/mL. In addition, the pKd in [8] is 5.95. In addition, the pKd in data set [9] is 5.97. In data set [10], the “SPR signal of ACE2 binding to S-RBD” value is given as “the signal value decreased”. The “Survival Rate (%) Vero” value in data set [5] turned out to be 105%. In addition, in data set [5] (up to 50 µg/mL for 48 h), the “Effect on cell proliferation of Vero” value was “did not affect”. The “Concentration showing clear inhibition of β-gal activity” value in data set [6] is 0.39 µg/mL. Moreover, in data set [11], the “Decrease of β-fold content” value is 9.46%, the “Increase of α-helix content” value came to 6.85%, the “Secondary Structure Content (%) Random” value is recorded as 32.93% and the “Secondary Structure Content (%) α-Helix” value is listed as 13.12%. In [11], the “Secondary Structure Content (%) β-Fold” value turned out to be 42.07% and the “Secondary Structure Content (%) β-Turn” value is given as 15.97%.

Take `CC(C)CCC[C@@H](C)[C@H]1CC[C@H]2[C@@H]3CC[C@H]4C[C@@H](O[C@@H]5O[C@H](COS(=O)(=O)O)[C@@H](O[C@H]6O[C@H](COS(=O)(=O)O)[C@@H](O[C@H]7O[C@H](COS(=O)(=O)O)[C@@H](O[C@H]8O[C@H](COS(=O)(=O)O)[C@@H](OS(=O)(=O)O)[C@H](OS(=O)(=O)O)[C@H]8OS(=O)(=O)O)[C@H](OS(=O)(=O)O)[C@H]7OS(=O)(=O)O)[C@H](OS(=O)(=O)O)[C@H]6OS(=O)(=O)O)[C@H](OS(=O)(=O)O)[C@H]5OS(=O)(=O)O)CC[C@]4(C)[C@H]3CC[C@]12C` [Pixatimod, reference compound]: in data set [4], the “MIC against AH109 (pAD-T+pBD-53)” value was 6.25 μg/mL.

The values are drawn from publication PMC11765512 (International Journal of Molecular Sciences, 2025).
